One test has as its target Cholinesterase (Equus caballus, UniProt P81908). Nature of the test: Inhibition of equine serum BuChE using ATCI as substrate preincubated for 30 mins followed by substrate addition measured after 5 mins by DTNB-based spectrophotometric analysis.
The target in the next test is Acetylcholinesterase (Electrophorus electricus, UniProt O42275). Nature of the test: Inhibition of electric eel AChE using ATCI as substrate preincubated for 30 mins followed by substrate addition measured after 5 mins by DTNB-based spectrophotometric analysis.
Test [1] is described as follows: Selectivity index, ratio of IC50 for electric eel AChE to IC50 for equine serum BuChE.

Sequence of Cholinesterase (P81908 whole entry): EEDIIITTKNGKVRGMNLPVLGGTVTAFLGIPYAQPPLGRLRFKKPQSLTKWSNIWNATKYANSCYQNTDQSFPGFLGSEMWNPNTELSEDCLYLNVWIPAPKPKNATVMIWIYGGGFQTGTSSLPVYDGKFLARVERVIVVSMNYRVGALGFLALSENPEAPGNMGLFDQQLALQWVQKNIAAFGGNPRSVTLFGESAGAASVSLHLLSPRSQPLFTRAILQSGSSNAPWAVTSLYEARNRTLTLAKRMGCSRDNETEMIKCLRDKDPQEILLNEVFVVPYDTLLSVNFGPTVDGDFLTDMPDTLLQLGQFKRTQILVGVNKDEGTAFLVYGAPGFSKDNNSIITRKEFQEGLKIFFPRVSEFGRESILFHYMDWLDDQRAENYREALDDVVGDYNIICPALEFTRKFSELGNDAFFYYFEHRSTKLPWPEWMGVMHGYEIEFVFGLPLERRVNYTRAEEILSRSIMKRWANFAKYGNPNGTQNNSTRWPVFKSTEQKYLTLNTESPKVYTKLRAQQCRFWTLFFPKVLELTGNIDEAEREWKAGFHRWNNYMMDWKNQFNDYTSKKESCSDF
Sequence of Acetylcholinesterase (O42275 whole entry): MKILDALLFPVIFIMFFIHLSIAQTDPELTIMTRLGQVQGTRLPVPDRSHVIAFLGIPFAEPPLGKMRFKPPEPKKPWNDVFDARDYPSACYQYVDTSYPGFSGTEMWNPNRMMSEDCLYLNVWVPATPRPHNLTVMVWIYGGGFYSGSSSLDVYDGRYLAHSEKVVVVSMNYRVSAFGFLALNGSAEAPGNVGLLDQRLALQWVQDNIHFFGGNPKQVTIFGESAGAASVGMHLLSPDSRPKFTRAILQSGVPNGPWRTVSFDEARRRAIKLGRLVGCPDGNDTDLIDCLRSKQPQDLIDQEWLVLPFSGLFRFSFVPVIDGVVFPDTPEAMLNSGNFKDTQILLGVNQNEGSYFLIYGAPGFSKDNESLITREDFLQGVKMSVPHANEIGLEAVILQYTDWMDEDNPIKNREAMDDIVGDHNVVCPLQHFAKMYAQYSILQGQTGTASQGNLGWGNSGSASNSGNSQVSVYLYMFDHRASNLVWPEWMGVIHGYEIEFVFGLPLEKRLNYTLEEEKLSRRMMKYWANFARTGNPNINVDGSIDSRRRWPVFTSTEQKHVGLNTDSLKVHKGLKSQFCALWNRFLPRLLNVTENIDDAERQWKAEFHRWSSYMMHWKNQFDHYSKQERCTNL

A word on the IC50: it is the concentration that inhibits the measured activity by half. Low readings indicate inhibition by little substance, high ones a need for much substance. Regarding `O[C@H]1C=C2[C@H]3CN(Cc4cc5c(cc43)OCO5)[C@H]2C[C@@H]1O`, the IC50 on Cholinesterase and against Acetylcholinesterase was more than 200 µM in each case.
For the molecule `CN1CC[C@@H]2C[C@H](O)[C@H]3OC(=O)c4c(cc5c(c4O)OCO5)[C@H]3[C@@H]21`, the Ratio IC50 in test [1] turned out to be 1.69. Also, the figures for the IC50 against Cholinesterase and against Acetylcholinesterase were 67.3 µM and 114 µM, respectively.
`CO[C@H]1C=C2[C@H]3C[N@@](Cc4cc5c(cc43)OCO5)[C@H]2C[C@@H]1O` [MONTANINE]: the IC50 against Cholinesterase and against Acetylcholinesterase was more than 200 µM throughout.
In the case of `O[C@H]1[C@H]2c3cc4c(cc3CN3CCC(=C[C@@H]1O)[C@H]23)OCO4` [LYCORINE], the IC50 against Cholinesterase was more than 200 µM.
With `CO[C@H]1[C@H]2C(=CC[C@@H]1O)[C@H]1CN2Cc2cc3c(cc21)OCO3`, the IC50 on Cholinesterase and on Acetylcholinesterase was more than 200 µM in each case.

Values taken from ChEMBL document CHEMBL3853276, “Alkaloids from Hippeastrum argentinum and Their Cholinesterase-Inhibitory Activities: An in Vitro and in Silico Study” (J Nat Prod, 2016).
